What was measured:
Experiment in all cases: relative viability (nuclei count vs DMSO), 5 days (fraction); higher = more cells survive
[1] = compound: O=C(Nc1cccc(C(F)(F)F)c1)Nc1cc(S(=O)(=O)NC2CC2)ccc1-c1ccsc1 [AGI-6780] + Cc1cc(Nc2cc(N3CCN(C)CC3)nc(Sc3ccc(NC(=O)C4CC4)cc3)n2)n[nH]1 [Tozasertib] (partner 0.1 µM)
Procedure, shortened: (§1)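 Medians of duplicate plates are given as relative viability. That measure is the nuclei count in treated wells divided by the count in vehicle wells. Counts were taken on 4× images of lung cancer cell lines in 1536-well plates, 5 days after pin-tool dosing the day after seeding with one drug alone or a fixed anchor-drug dose plus five library-drug doses (not always all listed) in √10 steps.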

[2] = compound: O=C(Nc1cccc(C(F)(F)F)c1)Nc1cc(S(=O)(=O)NC2CC2)ccc1-c1ccsc1 [AGI-6780] + CC1(C)CCC(c2ccc(Cl)cc2)=C(CN2CCN(c3ccc(C(=O)NS(=O)(=O)c4ccc(N[C@H](CCN5CCOCC5)CSc5ccccc5)c(S(=O)(=O)C(F)(F)F)c4)cc3)CC2)C1 [Navitoclax] (partner 0.5 µM)
Procedure, shortened: as §1

[3] = compound: O=C(Nc1cccc(C(F)(F)F)c1)Nc1cc(S(=O)(=O)NC2CC2)ccc1-c1ccsc1 [AGI-6780] + C[C@@H](Oc1cc(-c2cnn(C3CCNCC3)c2)cnc1N)c1c(Cl)ccc(F)c1Cl [Crizotinib] (partner 1 µM)
Procedure, shortened: as §1

[4] = compound: O=C(Nc1cccc(C(F)(F)F)c1)Nc1cc(S(=O)(=O)NC2CC2)ccc1-c1ccsc1 [AGI-6780] + O=C(CCCCCCC(=O)Nc1ccccc1)NO [Vorinostat] (partner 1 µM)
Procedure, shortened: as §1

## NCI-H1650
[1]; first compound 0.08 µM
  relative viability: 0.367
[1]; first compound 0.253 µM
  relative viability: 0.432
[1]; first compound 0.8 µM
  relative viability: 0.442
[1]; first compound 2.53 µM
  relative viability: 0.381
[1]; first compound 8 µM
  relative viability: 0.293
[2]; first compound 0.08 µM
  relative viability: 1.25
[2]; first compound 0.253 µM
  relative viability: 1.08
[2]; first compound 0.8 µM
  relative viability: 1.29
[2]; first compound 2.53 µM
  relative viability: 1.19
[2]; first compound 8 µM
  relative viability: 1.14
[3]; first compound 0.08 µM
  relative viability: 0.966
[3]; first compound 0.253 µM
  relative viability: 1.01
[3]; first compound 0.8 µM
  relative viability: 1.14
[3]; first compound 2.53 µM
  relative viability: 0.938
[3]; first compound 8 µM
  relative viability: 1.02
[4]; first compound 0.08 µM
  relative viability: 0.583
[4]; first compound 0.253 µM
  relative viability: 0.592
[4]; first compound 0.8 µM
  relative viability: 0.646
[4]; first compound 2.53 µM
  relative viability: 0.489
[4]; first compound 8 µM
  relative viability: 0.549

## NCI-H2228
[1]; first compound 0.08 µM
  relative viability: 0.281
[1]; first compound 0.253 µM
  relative viability: 0.278
[1]; first compound 0.8 µM
  relative viability: 0.228
[1]; first compound 2.53 µM
  relative viability: 0.226
[1]; first compound 8 µM
  relative viability: 0.201
[2]; first compound 0.08 µM
  relative viability: 0.753
[2]; first compound 0.253 µM
  relative viability: 1.04
[2]; first compound 0.8 µM
  relative viability: 0.675
[2]; first compound 2.53 µM
  relative viability: 0.856
[2]; first compound 8 µM
  relative viability: 1.08
[3]; first compound 0.08 µM
  relative viability: 0.492
[3]; first compound 0.253 µM
  relative viability: 0.584
[3]; first compound 0.8 µM
  relative viability: 0.453
[3]; first compound 2.53 µM
  relative viability: 0.368
[3]; first compound 8 µM
  relative viability: 0.512
[4]; first compound 0.08 µM
  relative viability: 0.641
[4]; first compound 0.253 µM
  relative viability: 0.597
[4]; first compound 0.8 µM
  relative viability: 0.592
[4]; first compound 2.53 µM
  relative viability: 0.502
[4]; first compound 8 µM
  relative viability: 0.537

## NCI-H520
[1]; first compound 0.08 µM
  relative viability: 0.486
[1]; first compound 0.253 µM
  relative viability: 0.441
[1]; first compound 0.8 µM
  relative viability: 0.426
[1]; first compound 2.53 µM
  relative viability: 0.327
[1]; first compound 8 µM
  relative viability: 0.446
[2]; first compound 0.08 µM
  relative viability: 1.04
[2]; first compound 0.253 µM
  relative viability: 1.12
[2]; first compound 0.8 µM
  relative viability: 1.18
[2]; first compound 2.53 µM
  relative viability: 1.05
[2]; first compound 8 µM
  relative viability: 1.05
[3]; first compound 0.08 µM
  relative viability: 0.936
[3]; first compound 0.253 µM
  relative viability: 0.729
[3]; first compound 0.8 µM
  relative viability: 1.12
[3]; first compound 2.53 µM
  relative viability: 0.753
[3]; first compound 8 µM
  relative viability: 0.774
[4]; first compound 0.08 µM
  relative viability: 0.694
[4]; first compound 0.253 µM
  relative viability: 0.71
[4]; first compound 0.8 µM
  relative viability: 0.91
[4]; first compound 2.53 µM
  relative viability: 0.64
[4]; first compound 8 µM
  relative viability: 0.764

## NCI-H2170
[1]; first compound 0.08 µM
  relative viability: 0.687
[1]; first compound 0.253 µM
  relative viability: 0.752
[1]; first compound 0.8 µM
  relative viability: 0.665
[1]; first compound 2.53 µM
  relative viability: 0.546
[1]; first compound 8 µM
  relative viability: 0.814
[2]; first compound 0.08 µM
  relative viability: 0.595
[2]; first compound 0.253 µM
  relative viability: 0.54
[2]; first compound 0.8 µM
  relative viability: 0.674
[2]; first compound 8 µM
  relative viability: 0.564
[3]; first compound 0.08 µM
  relative viability: 1.28
[3]; first compound 0.253 µM
  relative viability: 1.14
[3]; first compound 0.8 µM
  relative viability: 1.36
[3]; first compound 8 µM
  relative viability: 1.24
[4]; first compound 0.08 µM
  relative viability: 0.882
[4]; first compound 0.253 µM
  relative viability: 0.996
[4]; first compound 0.8 µM
  relative viability: 0.835
[4]; first compound 8 µM
  relative viability: 0.833

## NCI-H2023
[1]; first compound 0.08 µM
  relative viability: 0.329
[1]; first compound 0.253 µM
  relative viability: 0.48
[1]; first compound 0.8 µM
  relative viability: 0.358
[1]; first compound 2.53 µM
  relative viability: 0.212
[1]; first compound 8 µM
  relative viability: 0.25
[2]; first compound 0.08 µM
  relative viability: 1
[2]; first compound 0.253 µM
  relative viability: 1.06
[2]; first compound 0.8 µM
  relative viability: 1.02
[2]; first compound 2.53 µM
  relative viability: 0.989
[2]; first compound 8 µM
  relative viability: 0.919
[3]; first compound 0.08 µM
  relative viability: 0.637
[3]; first compound 0.253 µM
  relative viability: 0.541
[3]; first compound 0.8 µM
  relative viability: 0.856
[3]; first compound 2.53 µM
  relative viability: 0.554
[3]; first compound 8 µM
  relative viability: 0.731
[4]; first compound 0.08 µM
  relative viability: 0.705
[4]; first compound 0.253 µM
  relative viability: 0.818
[4]; first compound 0.8 µM
  relative viability: 0.781
[4]; first compound 2.53 µM
  relative viability: 0.541
[4]; first compound 8 µM
  relative viability: 0.648

From the supplement of paper PMC10307832
